Measurements: US20220218693A1, “IMMUNE CHECKPOINT INHIBITOR COMBINATION THERAPY USING QUINOLINE CARBOXAMIDE DERIVATIVE” (KABUSHIKI KAISHA YAKULT HONSHA, priority 2019, published 2022)

Key:
Format in all cases: in vivo, BALB/c mice
[1] = test system: mouse bowel cancer cell line CT26 cells; experiment: Antitumor effect of combined administration in CT26 tumor-bearing mice (Example 1); conditions: FIG. 1
Description: Six-week-old female BALB/c mice (72 mice) were purchased from Japan SLC, Inc., conditioned and raised for 5 days in University of Shizuoka, Experimental Animal Center, and then used for experiments.
Hair on a back part and ventral parts of the BALB/c mouse was shaved, and 1×10^6 mouse bowel cancer cell line CT26 cells (ATCCs) were subcutaneously transplanted in each of the left and right ventral parts (day 0). Five days after the transplantation, the longer diameter (mm) and the shorter diameter (mm) of the tumor were measured using a digital caliper (A&D Company, Limited), and a tumor volume was calculated. […]
An average of the tumor volumes on the left and the right was calculated for each individual, and on the basis of the thus-obtained value, the mice were divided into eight groups (nine mice in each group) in such a manner that the variations in tumor volume between individuals in the groups were the same. […]
The evaluation item was an average of the tumor volumes on the left and the right in each individual. From day 5, the longer diameter (mm) and the shorter diameter (mm) of the tumor were measured at an interval of one day or two days using a digital caliper. […] An average of the tumor volumes on the left and the right was calculated for each individual. […]

[2] = test system: mouse bowel cancer cell line CT26 cells; experiment: Antitumor effect of combined administration in CT26 tumor-bearing mice (Example 2); conditions: STX-1159 40 mg/kg p.o. days 6, 8 and 10 + PD-1 Ab 50 μg/mouse i.p. days 8, 10 and 13; compared with either agent alone; FIG. 2
Description: (§1) Six-week-old female BALB/c mice were purchased from Japan SLC, Inc., conditioned and raised for about a week in University of Shizuoka, Experimental Animal Center, and then used for experiments.
(§2) Hair on a back part and ventral parts of the BALB/c mouse was shaved, and 1×10^6 mouse bowel cancer cell line CT26 cells (ATCCs) were subcutaneously transplanted in each of the left and right ventral parts (day 0). Six days after the transplantation, the longer diameter (mm) and the shorter diameter (mm) of the tumor were measured using a digital caliper (A&D Company, Limited), and a tumor volume was calculated. The expression for calculation of the tumor volume was as follows: tumor volume (mm^3)=0.5×(longer diameter mm)×(shorter diameter mm)^2. An average of the tumor volumes on the left and the right was calculated for each individual, and on the basis of the thus-obtained value, the mice were divided into groups in such a manner that the variations in tumor volume between individuals in the groups were the same.
STX-1159 was orally administered at 40 mg/kg three times every other day. […]
The evaluation item was an individual tumor volume. From day 6, the longer diameter (mm) and the shorter diameter (mm) of the tumor were measured at an interval of one to four days using a digital caliper. […]

[3] = test system: mouse fibrosarcoma CMS5a cells; experiment: Antitumor effect of combined administration in CMS5a tumor-bearing mice (Example 3); conditions: STX-1159 40 mg/kg p.o. days 5 to 9 + PD-1 Ab 200 μg/mouse i.p. days 12, 14 and 16; t-test versus control; FIG. 3
Description: as §1
as §2, with “fibrosarcoma CMS5a” for “bowel cancer cell line CT26”, “cells” for “cells (ATCCs)”, “Five” for “Six”
STX-1159 was orally administered at 40 mg/kg continuously for five days. […]
The evaluation item was an individual tumor volume. From day 5, the longer diameter (mm) and the shorter diameter (mm) of the tumor were measured at an interval of one or two days using a digital caliper. […]

SMILES: O=C(Nc1nnc(-c2ccco2)o1)c1cc(-c2ccccc2)nc2ccc(OC(F)(F)F)cc12 [STX-1159, N-[5-(2-furyl)-1,3,4-oxadiazol-2-yl]-2-phenyl-6-trifluoromethoxy-4-quinoline carboxamide]
- antitumor effect (tumor volume) ([1]; STX-1159 40 mg/kg p.o. days 5 to 9 in advance + PD-1 Ab 50 μg/mouse i.p. days 12, 14 and 16, compared with simultaneous and later administration groups): much higher antitumor effect
- antitumor effect (tumor volume) ([1]; simultaneous: STX-1159 40 mg/kg p.o. days 12 to 16 + PD-1 Ab 50 μg/mouse i.p. days 12, 14 and 16, compared with each single-agent group): antitumor effect was lower
- antitumor effect (tumor volume) [2]: much higher antitumor effect
- tumor shrinkage (tumor volume) versus control group [3]: showed more significant tumor shrinkage over the control group
